Like-named read-outs stand apart in the source and are kept apart here. *1 amine or outer side, *2 acyl side, *3 side chain or, on linkers, in order; H or OH if unused. Where a SMILES comes first, the peptide text is derived from it. Bridges are numbered along the chain shown (N, C = ends). [ ]: non-standard residue; d: D form. The star is where a group is joined. hPhe(3-Cl-4-CF3) = N[C@@H](CCc1ccc(C(F)(F)F)c(Cl)c1)C(=O)O; X34 = COCCN([C@@H](Cc1ccc(C(F)(F)F)cc1)C(=O)[*:2])[*:1]; NMeGly(cPent) = CN[C@H](C(=O)O)C1CCCC1; NMeD = CN[C@@H](CC(=O)O)C(=O)O; NMeL = CN[C@@H](CC(C)C)C(=O)O; Morpholide = C1CN(*)CCO1; Ac5c = NC1(C(=O)O)CCCC1; Sar = CNCC(=O)O
Columns and labels:
[1] = test system: human lung cancer strain NCI-H441; assay type: cell-based
Outline: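 Step one: dispense the test compound in serial DMSO dilutions. Step three: add the reagent and measure […].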

[2] = molecular target: GDP-bound NRAS wild-type protein (Homo sapiens, UniProt P01111); experiment: Binding to NRAS by surface plasmon resonance (SPR), KD and KD ratio to KRAS
Outline: (§1)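 Biotinylated GDP-bound RAS was captured at about 100–300 RU. Running buffer: HBS pH 7.4, 10 mM MgCl2, 10 µM GDP, 1 mM DTT, 0.01% Tween 20, 4% DMSO.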

[3] = molecular target: HRAS wild-type protein (Homo sapiens, UniProt P01112); experiment: Binding to HRAS by surface plasmon resonance (SPR), KD and KD ratio to KRAS
Outline: as §1

[4] = ratio of the KD value with respect to GDP-bound NRAS wild-type protein to the KD value with respect to KRAS
[5] = ratio of the KD value with respect to HRAS wild-type protein to the KD value with respect to KRAS
[6] = ratio of KD for GDP-bound NRAS wild-type protein to KD for KRAS
[7] = ratio of KD for HRAS wild-type protein to KD for KRAS
[8] = ratio of KD value for GDP-bound NRAS wild-type protein to KD value for KRAS (SPR)
[9] = ratio of KD value for HRAS wild-type protein to KD value for KRAS (SPR)

GDP-bound NRAS wild-type protein, sequence (P01111 whole entry): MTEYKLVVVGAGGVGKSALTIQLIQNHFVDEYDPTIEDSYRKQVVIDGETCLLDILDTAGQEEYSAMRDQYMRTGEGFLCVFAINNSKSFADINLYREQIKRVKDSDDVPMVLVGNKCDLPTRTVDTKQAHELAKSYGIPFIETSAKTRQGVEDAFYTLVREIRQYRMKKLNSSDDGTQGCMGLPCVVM
HRAS wild-type protein, sequence (P01112 whole entry): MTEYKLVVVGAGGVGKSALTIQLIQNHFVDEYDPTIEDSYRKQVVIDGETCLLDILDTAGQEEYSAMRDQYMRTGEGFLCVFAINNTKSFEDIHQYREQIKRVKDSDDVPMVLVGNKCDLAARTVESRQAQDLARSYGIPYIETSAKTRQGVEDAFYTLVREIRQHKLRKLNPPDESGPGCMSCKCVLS

| Compound | IC50 [1] | NRAS /KRAS [2, 4] | HRAS /KRAS [3, 5] | NRAS /KRAS [2, 6] | HRAS /KRAS [3, 7] | NRAS /KRAS [2, 8] | HRAS /KRAS [3, 9] | IC50 ([1]; NCI-H441 cells, 4 days, CellTiter-Glo, read-out: NCl-H441 IC50) |
| --- | --- | --- | --- | --- | --- | --- | --- | --- |
| CCO[C@@H]1C[C@H]2C(=O)NC3(CCCC3)C(=O)N(C)[C@@H](C3CCCC3)C(=O)N(C)[C@H](C(=O)N3CCOCC3)CC(=O)N(C)[C@@H](CC(C)C)C(=O)N[C@@H]([C@@H](C)CC)C(=O)N(C)CC(=O)N(C)[C@H]3CCCCCN(C3=O)[C@@H](Cc3ccc(C(F)(F)F)cc3)C(=O)N(C)CC(=O)N[C@@H](CCc3cc(F)c(C(F)(F)F)c(F)c3)C(=O)N2C1 [PP0492] | 31.9 nM | B (a compound having 3 or more and less than 10 is denoted as B) | B (a compound having 3 or more and less than 10 is denoted as B) |  |  |  |  |  |
| CCO[C@@H]1C[C@H]2C(=O)NC3(CCC3)C(=O)N(C)[C@@H](C3CCCC3)C(=O)N[C@H](C(=O)N(C)C)CC(=O)N(C)[C@@H](CC)C(=O)N[C@@H]([C@@H](C)CC)C(=O)N(C)CC(=O)N(C)[C@H]3C/C=C\CCN(C3=O)[C@@H](Cc3ccc(C(F)(F)F)cc3)C(=O)N(C)CC(=O)N[C@@H](CCc3cc(F)c(C(F)(F)F)c(F)c3)C(=O)N2C1 [PP1094] | 778 nM |  |  | A (a compound having 10 or more and less than 20 is denoted as A) | B (a compound having 3 or more and less than 10 is denoted as B) |  |  |  |
| CC[C@H](C)[C@@H]1NC(=O)[C@H](CC2CC2)N(C)C(=O)C[C@@H](C(=O)N(C)C)N(C)C(=O)[C@H](C2CCCC2)N(C)C(=O)C2(CC(C)(C)C2)NC(=O)[C@@H]2C[C@@H](C(F)(F)F)CN2C(=O)[C@H](CCc2cc(F)c(C(F)(F)F)c(F)c2)NC(=O)CN(C)C(=O)[C@H](Cc2ccc(F)cc2)N2CC/C=C\C[C@@H](C2=O)N(C)C(=O)CN(C)C1=O [PP1507] | 16.2 nM |  |  |  |  | A (a compound having 10 or more and less than 20 is denoted as A) | A (a compound having 10 or more and less than 20 is denoted as A) |  |
| CCO[C@@H]1C[C@H]2C(=O)NC3(CCC3)C(=O)N(C)[C@@H](C3CCCC3)C(=O)N(C)[C@H](C(=O)N(C)CC)CC(=O)N(C)[C@@H](CC3CCC3)C(=O)N[C@@H]([C@@H](C)CC)C(=O)N(C)CC(=O)N(C)[C@H]3C/C=C\CCN(C3=O)[C@@H](Cc3ccc(C(F)(F)F)cc3)C(=O)N(C)CC(=O)N[C@@H](CCc3ccc(C(F)(F)F)c(OC)c3)C(=O)N2C1 [PP2825] | 7.6 nM |  |  | A (a compound having 10 or more and less than 20 is denoted as A) | B (a compound having 3 or more and less than 10 is denoted as B) |  |  |  |
| CCOC[C@H]1C(=O)N[C@@H]([C@@H](C)CC)C(=O)N(C)CC(=O)N(C)[C@H]2C/C=C\CCN(C2=O)[C@@H](Cc2ccc3c(c2)CCC3(F)F)C(=O)N(C)CC(=O)N[C@@H](CCc2ccc(C(F)(F)F)c(OC)c2)C(=O)N2C[C@@H](C)C[C@H]2C(=O)NC2(CC(C)(C)C2)C(=O)N(C)[C@@H](C2CCCC2)C(=O)N(C)[C@H](C(=O)N(C)CC)CC(=O)N1C [PP2704] |  |  |  | B (a compound having 3 or more and less than 10 is denoted as B) | B (a compound having 3 or more and less than 10 is denoted as B) |  |  | 10.7 nM |
| CC[C@H](C)[C@@H]1NC(=O)[C@H](CC(C)C)N(C)C(=O)C[C@@H](C(=O)N(CC)CC)N(C)C(=O)[C@H](C2CCCC2)N(C)C(=O)C2(CCC2)NC(=O)[C@@H]2C[C@H](C)CN2C(=O)[C@H](CCc2ccc(C(F)(F)F)c(OC)c2)NC(=O)CN(C)C(=O)[C@H](Cc2ccc(C)cc2)N2CC/C=C\C[C@@H](C2=O)N(C)C(=O)CN(C)C1=O [PP1885] | 18.3 nM |  |  |  |  | AA (a compound having 20 or more is denoted as AA) | A (a compound having 10 or more and less than 20 is denoted as A) |  |
| CCO[C@@H]1C[C@H]2C(=O)NC3(CCC3)C(=O)N(C)[C@@H](C(CC)CC)C(=O)N(C)[C@H](C(=O)N3CCCCC3)CC(=O)N(C)[C@H]3CCCCC/C=C/c4ccc(cc4)C[C@@H](C(=O)N(C)CC(=O)N[C@@H](CCc4ccc(Cl)c(Cl)c4)C(=O)N2C1)N1CC/C=C\C[C@@H](C1=O)N(C)C(=O)CN(C)C(=O)[C@H]([C@@H](C)CC)NC3=O [PP3051] | 42.1 nM |  |  | AA (a compound having 20 or more is denoted as AA) | A (a compound having 10 or more and less than 20 is denoted as A) |  |  |  |

The remaining molecules from weak to strong by IC50 [1], led by results:

| IC50 [1] | Compound | NRAS /KRAS [2, 4] | HRAS /KRAS [3, 5] | NRAS /KRAS [2, 6] | HRAS /KRAS [3, 7] | NRAS /KRAS [2, 8] | HRAS /KRAS [3, 9] | IC50 ([1]; NCI-H441 cells, 4 days, CellTiter-Glo, read-out: NCl-H441 IC50) |
| --- | --- | --- | --- | --- | --- | --- | --- | --- |
| 349 nM | CCO[C@@H]1C[C@H]2C(=O)NC3(CCC3)C(=O)N(C)[C@@H](C3CCCC3)C(=O)N(C)[C@H](C(=O)N3CCOCC3)CC(=O)N(C)[C@@H](CC)C(=O)N[C@@H]([C@@H](C)CC)C(=O)N3CC[C@H]3C(=O)N(C)[C@H]3CC(C)=CCN(C3=O)[C@@H](Cc3ccc(C(F)(F)F)cc3)C(=O)N(C)CC(=O)N[C@@H](CCc3cc(F)c(C(F)(F)F)c(F)c3)C(=O)N2C1 [PP1042] |  |  | C (A compound having a KD ratio of 0.1 or more and less than 3 is denoted as C) | C (A compound having a KD ratio of 0.1 or more and less than 3 is denoted as C) |  |  |  |
| 181 nM | CCO[C@@H]1C[C@H]2C(=O)NC3(CCC3)C(=O)N(C)[C@@H](C3CCCC3)C(=O)N(C)[C@H](C(=O)N3CCOCC3)CC(=O)N(C)[C@@H](Cc3ccccc3C)C(=O)N[C@@H]([C@@H](C)CC)C(=O)N(C)CC(=O)N(C)[C@H]3CCCCCN(C3=O)[C@@H](Cc3ccc(C(F)(F)F)cc3)C(=O)N(C)CC(=O)N[C@@H](CCc3cc(F)c(C(F)(F)F)c(F)c3)C(=O)N2C1 [PP0931] |  |  | A (a compound having 10 or more and less than 20 is denoted as A) | B (a compound having 3 or more and less than 10 is denoted as B) |  |  |  |
| 15.1 nM | CCO[C@@H]1C[C@H]2C(=O)NC3(CC(F)(F)C3)C(=O)N(C)[C@@H](C3CCCC3)C(=O)N(C)[C@H](CC)CC(=O)N(C)[C@@H](CC3CC3)C(=O)N[C@@H]([C@@H](C)CC)C(=O)N(C)CC(=O)N(C)[C@H]3C/C=C\CCN(C3=O)[C@@H](Cc3ccc(C(F)(F)F)cc3)C(=O)N(C)CC(=O)N[C@@H](CCc3cc(F)c(C(F)(F)F)c(F)c3)C(=O)N2C1 [PP1633] |  |  |  |  | A (a compound having 10 or more and less than 20 is denoted as A) | B (a compound having 3 or more and less than 10 is denoted as B) |  |
| 14.8 nM | CC[C@H](C)[C@@H]1NC(=O)[C@H](CC(C)C)N(C)C(=O)C[C@@H](C(=O)N2CCOCC2)N(C)C(=O)[C@H](C2CCCC2)N(C)C(=O)C2(CCCC2)NC(=O)[C@@H]2CCCN2C(=O)[C@H](CCc2ccc(C(F)(F)F)c(Cl)c2)NC(=O)CN(C)C(=O)[C@H](Cc2ccc(C(F)(F)F)cc2)N(CCOC)C(=O)CN(C)C(=O)CN(C)C1=O [PP0132] ([NMeL]I[Sar][Sar][X34][Sar][hPhe(3-Cl-4-CF3)]P[Ac5c][NMeGly(cPent)][NMeD]-Morpholide; lactam N-11) |  |  | C (A compound having a KD ratio of 0.1 or more and less than 3 is denoted as C) | C (A compound having a KD ratio of 0.1 or more and less than 3 is denoted as C) |  |  |  |
| 12.3 nM | CCC[C@H]1C(=O)N[C@@H]([C@@H](C)CC)C(=O)N(C)CC(=O)N(C)[C@H]2C/C=C\CCN(C2=O)[C@@H](Cc2ccc(C(F)(F)F)cc2)C(=O)N(C)CC(=O)N[C@@H](CCc2cc(F)c(C(F)(F)F)c(F)c2)C(=O)N(C)[C@@H](COC)C(=O)NC2(CC(C)(C)C2)C(=O)N(C)[C@@H](C2CCCC2)C(=O)N(C)[C@H](C(=O)N(C)C)CC(=O)N1C [PP1936] | AA (a compound having 20 or more is denoted as AA) | A (a compound having 10 or more and less than 20 is denoted as A) |  |  |  |  |  |
| 11.1 nM | CC[C@H](C)[C@@H]1NC(=O)[C@H](CC(C)C)N(C)C(=O)C[C@@H](C(=O)N(C)C)N(C)C(=O)[C@H](C2CCCC2)N(C)C(=O)C2(CCC2)NC(=O)[C@@H]2C[C@@H](C)CN2C(=O)[C@H](CCc2cc(F)c(C(F)(F)F)c(F)c2)NC(=O)CN(C)C(=O)[C@H](Cc2ccc(C)cc2)N2CC/C=C\C[C@@H](C2=O)N(C)C(=O)CN(C)C1=O [PP1866] |  |  |  |  | A (a compound having 10 or more and less than 20 is denoted as A) | B (a compound having 3 or more and less than 10 is denoted as B) |  |
| 10.2 nM | CCO[C@@H]1C[C@H]2C(=O)NC3(CCC3)C(=O)N(C)[C@@H](C3CCCC3)C(=O)N3CCC[C@@H]3CC(=O)N(C)[C@@H](CC)C(=O)N[C@@H]([C@@H](C)CC)C(=O)N(C)CC(=O)N(C)[C@H]3C/C=C\CCN(C3=O)[C@@H](Cc3ccc(C(F)(F)F)cc3)C(=O)N(C)CC(=O)N[C@@H](CCc3cc(F)c(C(F)(F)F)c(F)c3)C(=O)N2C1 [PP1097] |  |  | B (a compound having 3 or more and less than 10 is denoted as B) | B (a compound having 3 or more and less than 10 is denoted as B) |  |  |  |
| 9.6 nM | CCC[C@H]1C(=O)N[C@@H]([C@@H](C)CC)C(=O)N(C)CC(=O)N(C)[C@H]2C/C=C\CCN(C2=O)[C@@H](Cc2ccc(C)cc2)C(=O)N(C)CC(=O)N[C@@H](CCc2ccc3sc(F)c(C)c3c2)C(=O)N2C[C@H](OCC)C[C@H]2C(=O)NC2(CC(C)(C)C2)C(=O)N(C)[C@@H](C(CC)CC)C(=O)N(C)[C@H](C(=O)N(C)C)CC(=O)N1C [PP2894] |  |  | AA (a compound having 20 or more is denoted as AA) | A (a compound having 10 or more and less than 20 is denoted as A) |  |  |  |
| 3 nM | CCO[C@@H]1C[C@H]2C(=O)NC3(CC(C)(C)C3)C(=O)N(C)[C@@H](C3CCCC3)C(=O)N(C)[C@H](C(=O)N(C)CC)CC(=O)N(C)[C@@H](COC)C(=O)N[C@@H]([C@@H](C)CC)C(=O)N(C)CC(=O)N(C)[C@H]3C/C=C\CCN(C3=O)[C@@H](Cc3ccc(C(F)(F)F)cc3)C(=O)N(C)CC(=O)N[C@@H](CCc3cc(F)c(C(F)(F)F)c(F)c3)C(=O)N2C1 [PP1671] |  |  |  |  | A (a compound having 10 or more and less than 20 is denoted as A) | A (a compound having 10 or more and less than 20 is denoted as A) |  |
